Assay results reported in paper PMC5218480 (PLoS ONE, 2017).

Tested on: MV-4-11 cells
Experiment: Gene expression microarray analysis (Affymetrix PrimeView) and GSEA
Type: cell-based, human
Set-up: RFU PODN (11730768_x_at) / Fold change /veh PODN (11730768_x_at) / RFU LINC00158 (11744669_a_at) / Fold change /veh LINC00158 (11744669_a_at) / RFU DUSP10 (11751237_a_at) / Fold change /veh DUSP10 (11751237_a_at) / RFU ID3 (11757404_x_at) / Fold change /veh ID3 (11757404_x_at) / RFU PLEKHG5 (11737974_s_at) / Fold change /veh PLEKHG5 (11737974_s_at) / RFU LRRC4B (11730491_at) / Fold change /veh LRRC4B (11730491_at) / RFU GIMAP4 (11747438_a_at) / Fold change /veh GIMAP4 (11747438_a_at) / RFU KRT8 (11758183_x_at) / Fold change /veh KRT8 (11758183_x_at) / RFU CNN1 (11734310_a_at) / Fold change /veh CNN1 (11734310_a_at) / RFU VPS37D (11726825_at) / Fold change /veh VPS37D (11726825_at) / RFU C10orf10 (11716522_x_at) / Fold change /veh C10orf10 (11716522_x_at) / RFU KIR2DL2 /// KIR2DL4 /// KIR2DL5A /// KIR2DL5B /// KIR2DS1 /// KIR2DS2 /// KIR2DS3 /// KIR2DS4 /// KIR3DL3 /// KIR3DL3 /// KIR3DS1 (11738374_at) / Fold change /veh KIR2DL2 /// KIR2DL4 /// KIR2DL5A /// KIR2DL5B /// KIR2DS1 /// KIR2DS2 /// KIR2DS3 /// KIR2DS4 /// KIR3DL3 /// KIR3DL3 /// KIR3DS1 (11738374_at) / RFU C1QL1 (11718748_at) / Fold change /veh C1QL1 (11718748_at) / RFU TMPRSS4 (11747572_a_at) / Fold change /veh TMPRSS4 (11747572_a_at) / RFU HAMP (11756126_x_at) / Fold change /veh HAMP (11756126_x_at) / RFU RNFT2 (11725882_a_at) / Fold change /veh RNFT2 (11725882_a_at) / RFU NR4A2 (11747474_a_at) / Fold change /veh NR4A2 (11747474_a_at) / RFU ABCC12 (11746883_a_at) / Fold change /veh ABCC12 (11746883_a_at) / RFU TMEM136 (11760407_x_at) / Fold change /veh TMEM136 (11760407_x_at) / RFU CLDN22 /// WWC2 (11732394_at) / Fold change /veh CLDN22 /// WWC2 (11732394_at) / RFU HLA-DPB1 (11760878_x_at) / Fold change /veh HLA-DPB1 (11760878_x_at) / RFU SPINT1 (11716480_a_at) / Fold change /veh SPINT1 (11716480_a_at) / RFU GAP43 (11754022_s_at) / Fold change /veh GAP43 (11754022_s_at) / RFU A4GNT (11735810_at) / Fold change /veh A4GNT (11735810_at) / RFU PRB3 (11715151_x_at) / Fold change /veh PRB3 (11715151_x_at) / RFU TUBB4B (11761932_at) / Fold change /veh TUBB4B (11761932_at) / RFU CAPN14 (11732068_a_at) / Fold change /veh CAPN14 (11732068_a_at) / RFU TMCC2 (11721928_a_at) / Fold change /veh TMCC2 (11721928_a_at) / RFU IRGQ (11745062_a_at) / Fold change /veh IRGQ (11745062_a_at) / RFU FAM174B (11720279_a_at) / Fold change /veh FAM174B (11720279_a_at) / RFU TMPRSS4 (11748680_a_at) / Fold change /veh TMPRSS4 (11748680_a_at) / RFU FAM212B (11763350_a_at) / Fold change /veh FAM212B (11763350_a_at) / RFU PLEKHG5 (11743358_a_at) / Fold change /veh PLEKHG5 (11743358_a_at) / RFU ZSCAN30 (11745921_a_at) / Fold change /veh ZSCAN30 (11745921_a_at) / RFU CMKLR1 (11741424_a_at) / Fold change /veh CMKLR1 (11741424_a_at) / RFU LOC101060620 /// MAPK8IP1 (11723275_at) / Fold change /veh LOC101060620 /// MAPK8IP1 (11723275_at) / RFU SPTSSB (11747773_x_at) / Fold change /veh SPTSSB (11747773_x_at) / RFU PRSS12 (11739890_at) / Fold change /veh PRSS12 (11739890_at) / RFU BIN1 (11741810_x_at) / Fold change /veh BIN1 (11741810_x_at) / RFU WNT11 (11732464_a_at) / Fold change /veh WNT11 (11732464_a_at) / RFU C10orf10 (11716521_a_at) / Fold change /veh C10orf10 (11716521_a_at) / RFU C5orf56 (11738089_at) / Fold change /veh C5orf56 (11738089_at) / RFU CYB561 (11721691_x_at) / Fold change /veh CYB561 (11721691_x_at) / RFU ANKRD19P (11752326_a_at) / Fold change /veh ANKRD19P (11752326_a_at) / RFU OR2T12 /// OR2T33 /// OR2T8 (11738714_s_at) / Fold change /veh OR2T12 /// OR2T33 /// OR2T8 (11738714_s_at) / RFU VCAN (11748164_a_at) / Fold change /veh VCAN (11748164_a_at) / RFU JSRP1 (11732532_at) / Fold change /veh JSRP1 (11732532_at) / RFU KRTAP10-11 (11738290_x_at) / Fold change /veh KRTAP10-11 (11738290_x_at) / RFU MYO3A (11730013_a_at) / Fold change /veh MYO3A (11730013_a_at) / RFU EBF3 (11725865_a_at) / Fold change /veh EBF3 (11725865_a_at) / RFU CAMK2N1 (11719241_x_at) / Fold change /veh CAMK2N1 (11719241_x_at) / RFU C5orf56 (11738088_a_at) / Fold change /veh C5orf56 (11738088_a_at) / RFU OLFML3 (11715873_a_at) / Fold change /veh OLFML3 (11715873_a_at) / RFU LOC100653217 /// NTM (11731650_a_at) / Fold change /veh LOC100653217 /// NTM (11731650_a_at) / RFU MAPK11 (11762145_a_at) / Fold change /veh MAPK11 (11762145_a_at) / RFU FIZ1 (11724087_x_at) / Fold change /veh FIZ1 (11724087_x_at) / RFU OASL (11726364_x_at) / Fold change /veh OASL (11726364_x_at) / RFU SOX15 (11748057_x_at) / Fold change /veh SOX15 (11748057_x_at) / RFU CD79A (11719716_a_at) / Fold change /veh CD79A (11719716_a_at) / RFU HIST1H1D (11736915_at) / Fold change /veh HIST1H1D (11736915_at) / RFU CASKIN2 (11723855_a_at) / Fold change /veh CASKIN2 (11723855_a_at) / RFU LOC730098 (11760151_x_at) / Fold change /veh LOC730098 (11760151_x_at) / RFU OR4N2 (11742367_at) / Fold change /veh OR4N2 (11742367_at) / RFU PRRT2 (11749266_a_at) / Fold change /veh PRRT2 (11749266_a_at) / RFU SNX32 (11753110_a_at) / Fold change /veh SNX32 (11753110_a_at) / RFU CDHR5 (11726645_a_at) / Fold change /veh CDHR5 (11726645_a_at) / RFU RCAN1 (11760418_a_at) / Fold change /veh RCAN1 (11760418_a_at) / RFU FAM167A (11723789_a_at) / Fold change /veh FAM167A (11723789_a_at) / RFU FAM26E (11764081_at) / Fold change /veh FAM26E (11764081_at) / RFU ISYNA1 (11749810_s_at) / Fold change /veh ISYNA1 (11749810_s_at) / RFU ACY1 (11761880_at) / Fold change /veh ACY1 (11761880_at) / RFU 11764098_at / Fold change /veh 11764098_at / RFU SAMD14 (11745864_x_at) / Fold change /veh SAMD14 (11745864_x_at) / RFU NPB (11741838_a_at) / Fold change /veh NPB (11741838_a_at) / RFU TMPRSS6 (11731388_a_at) / Fold change /veh TMPRSS6 (11731388_a_at) / RFU KRTAP10-2 (11738614_at) / Fold change /veh KRTAP10-2 (11738614_at) / RFU ARHGAP8 /// PRR5-ARHGAP8 (11727945_x_at) / Fold change /veh ARHGAP8 /// PRR5-ARHGAP8 (11727945_x_at) / RFU KRTAP5-7 /// NADSYN1 (11734609_at) / Fold change /veh KRTAP5-7 /// NADSYN1 (11734609_at) / RFU RASL12 (11751679_a_at) / Fold change /veh RASL12 (11751679_a_at) / RFU CDKN2B (11736163_a_at) / Fold change /veh CDKN2B (11736163_a_at) / RFU PRF1 (11729649_at) / Fold change /veh PRF1 (11729649_at) / RFU, ZNF638 /// ZNF638-IT1 / Fold change vs veh, ZNF638 /// ZNF638-IT1 / RFU, PANK3 / Fold change vs veh, PANK3 / RFU, SH3YL1 / Fold change vs veh, SH3YL1 / RFU, ZEB2 / Fold change vs veh, ZEB2 / RFU, NRIP1 / Fold change vs veh, NRIP1 / RFU, PTTG1IP / Fold change vs veh, PTTG1IP / RFU, CAPN2 / Fold change vs veh, CAPN2 / RFU, MED14 / Fold change vs veh, MED14 / RFU, SNORA58 / Fold change vs veh, SNORA58 / RFU, C1orf63 / Fold change vs veh, C1orf63 / RFU, LRRFIP1 / Fold change vs veh, LRRFIP1 / RFU, NDUFAF7 / Fold change vs veh, NDUFAF7 / RFU, SLC12A2 / Fold change vs veh, SLC12A2 / RFU, IBTK / Fold change vs veh, IBTK / RFU, ESF1 / Fold change vs veh, ESF1 / Fold change vs veh, TMEM50B / RFU, TAOK1 / Fold change vs veh, TAOK1 / RFU, ACBD3 / Fold change vs veh, ACBD3 / RFU, TMA16 / Fold change vs veh, TMA16 / RFU, RWDD3 / Fold change vs veh, RWDD3 / RFU, BCAT1 / Fold change vs veh, BCAT1 / RFU, EDEM3 / Fold change vs veh, EDEM3 / RFU, TMEM33 / Fold change vs veh, TMEM33 / RFU, WDR75 / Fold change vs veh, WDR75 / RFU, AHCTF1 / Fold change vs veh, AHCTF1 / RFU, TFRC / Fold change vs veh, TFRC / RFU, ZDHHC17 / Fold change vs veh, ZDHHC17 / RFU, NOM1 / Fold change vs veh, NOM1 / RFU, ARL8B / Fold change vs veh, ARL8B / RFU, ZBTB11 / Fold change vs veh, ZBTB11 / RFU, TAMM41 / Fold change vs veh, TAMM41 / RFU, KIAA1704 /// LOC100996395 / Fold change vs veh, KIAA1704 /// LOC100996395 / RFU, ING1 / Fold change vs veh, ING1 / RFU, TRMT61B / Fold change vs veh, TRMT61B / RFU, FUBP3 / Fold change vs veh, FUBP3 / RFU, TP53 / Fold change vs veh, TP53 / RFU, TNKS2 / Fold change vs veh, TNKS2 / RFU, ZFP14 / Fold change vs veh, ZFP14 / RFU, ACTR2 / Fold change vs veh, ACTR2 / RFU, PPP3R1 / Fold change vs veh, PPP3R1 / RFU, PIK3R1 / Fold change vs veh, PIK3R1 / RFU, HNRNPA1 / Fold change vs veh, HNRNPA1 / RFU, RNF170 / Fold change vs veh, RNF170 / RFU, ZNF28 / Fold change vs veh, ZNF28 / RFU, RNGTT / Fold change vs veh, RNGTT / RFU, OGT / Fold change vs veh, OGT / RFU, BRD1 / Fold change vs veh, BRD1 / RFU, MARS / Fold change vs veh, MARS / RFU, ZNF655 / Fold change vs veh, ZNF655 / RFU, FAHD1 / Fold change vs veh, FAHD1 / RFU, BDP1 / Fold change vs veh, BDP1 / RFU, LRRCC1 / Fold change vs veh, LRRCC1 / RFU, ARID1A / Fold change vs veh, ARID1A / RFU, ZNF146 / Fold change vs veh, ZNF146 / RFU, ZNF330 / Fold change vs veh, ZNF330 / RFU, GPN3 / Fold change vs veh, GPN3 / RFU, C9orf123 / Fold change vs veh, C9orf123 / RFU, N4BP2L2 / Fold change vs veh, N4BP2L2 / RFU, ARFIP1 / Fold change vs veh, ARFIP1 / RFU, FAM179B / Fold change vs veh, FAM179B / RFU, BCL10 / Fold change vs veh, BCL10 / RFU, UHRF1BP1L / Fold change vs veh, UHRF1BP1L / RFU, BET1 / Fold change vs veh, BET1 / RFU, CNOT2 / Fold change vs veh, CNOT2 / RFU, ZNF268 / Fold change vs veh, ZNF268 / Fold change vs veh, ZNF507 / RFU, DGCR2 / Fold change vs veh, DGCR2 / RFU, WDSUB1 / Fold change vs veh, WDSUB1 / Fold change vs veh, HSP90B1 /// MIR3652 / RFU, ADSS / Fold change vs veh, ADSS / RFU, GK / Fold change vs veh, GK / RFU, ZNF148 / Fold change vs veh, ZNF148 / RFU, TAF9 / Fold change vs veh, TAF9 / RFU, SLC1A5 / Fold change vs veh, SLC1A5 / RFU, SLMO2 / Fold change vs veh, SLMO2 / RFU, ABCC4 / Fold change vs veh, ABCC4 / RFU, LOC101060439 /// RAP1B / Fold change vs veh, LOC101060439 /// RAP1B / RFU, RFX7 / Fold change vs veh, RFX7 / RFU, GTPBP10 / Fold change vs veh, GTPBP10 / RFU, CNEP1R1 / Fold change vs veh, CNEP1R1 / RFU, BIVM-ERCC5 /// ERCC5 / Fold change vs veh, BIVM-ERCC5 /// ERCC5 / RFU, ILF3 / Fold change vs veh, ILF3 / RFU 11762660_at / Fold change /veh 11762660_at / RFU VCAN (11757783_s_at) / Fold change /veh VCAN (11757783_s_at) / RFU DDX43 (11728927_at) / Fold change /veh DDX43 (11728927_at) / RFU KRT8 (11758188_x_at) / Fold change /veh KRT8 (11758188_x_at) / RFU NKD1 (11759106_at) / Fold change /veh NKD1 (11759106_at) / RFU SRD5A1 (11742802_a_at) / Fold change /veh SRD5A1 (11742802_a_at) / RFU TPSAB1 /// TPSB2 (11721975_s_at) / Fold change /veh TPSAB1 /// TPSB2 (11721975_s_at) / RFU GSTM3 (11746129_a_at) / Fold change /veh GSTM3 (11746129_a_at) / RFU IL23R (11737362_x_at) / Fold change /veh IL23R (11737362_x_at) / RFU TMEM51 (11727254_a_at) / Fold change /veh TMEM51 (11727254_a_at) / RFU PIWIL2 (11732686_x_at) / Fold change /veh PIWIL2 (11732686_x_at) / RFU ORM1 (11744905_x_at) / Fold change /veh ORM1 (11744905_x_at) / RFU CCDC152 (11743942_at) / Fold change /veh CCDC152 (11743942_at) / RFU ECM1 (11717891_a_at) / Fold change /veh ECM1 (11717891_a_at) / RFU IL23R (11748794_a_at) / Fold change /veh IL23R (11748794_a_at) / RFU TNFAIP8L3 (11732012_x_at) / Fold change /veh TNFAIP8L3 (11732012_x_at) / RFU MBOAT4 (11741988_at) / Fold change /veh MBOAT4 (11741988_at) / RFU 11764193_at / Fold change /veh 11764193_at / RFU TMEM53 (11763286_at) / Fold change /veh TMEM53 (11763286_at) / RFU MAGEB2 (11727129_at) / Fold change /veh MAGEB2 (11727129_at) / RFU TMEM200A (11744735_a_at) / Fold change /veh TMEM200A (11744735_a_at) / RFU CCDC152 (11751479_a_at) / Fold change /veh CCDC152 (11751479_a_at) / RFU FAM211A (11726209_a_at) / Fold change /veh FAM211A (11726209_a_at) / RFU RGS16 (11746705_a_at) / Fold change /veh RGS16 (11746705_a_at) / RFU VCAN (11755009_s_at) / Fold change /veh VCAN (11755009_s_at) / RFU RHOB (11743442_s_at) / Fold change /veh RHOB (11743442_s_at) / RFU RGS16 (11720943_a_at) / Fold change /veh RGS16 (11720943_a_at) / RFU RGS16 (11720944_at) / Fold change /veh RGS16 (11720944_at) / RFU, VPS4B / Fold change vs veh, VPS4B / RFU, CREB1 / Fold change vs veh, CREB1 / RFU, DNAJC13 / Fold change vs veh, DNAJC13 / RFU, GNAQ / Fold change vs veh, GNAQ / RFU, CDK5R1 / Fold change vs veh, CDK5R1 / RFU, ZRANB3 / Fold change vs veh, ZRANB3 / RFU, CUL4A / Fold change vs veh, CUL4A / RFU, CCNY / Fold change vs veh, CCNY / RFU, UFL1 / Fold change vs veh, UFL1 / RFU, COG3 / Fold change vs veh, COG3 / RFU, DIAPH2 / Fold change vs veh, DIAPH2 / RFU, SKA2 / Fold change vs veh, SKA2 / RFU, AFF3 / Fold change vs veh, AFF3 / RFU, LMF1 / Fold change vs veh, LMF1 / RFU, IPO11 / Fold change vs veh, IPO11 / RFU, DFFB / Fold change vs veh, DFFB / RFU, FOXP1 / Fold change vs veh, FOXP1 / RFU, CARD8 / Fold change vs veh, CARD8 / RFU, STRN3 / Fold change vs veh, STRN3 / RFU, ADK / Fold change vs veh, ADK / RFU, RASSF2 / Fold change vs veh, RASSF2 / RFU, WIPF1 / Fold change vs veh, WIPF1 / RFU, LARP1B / Fold change vs veh, LARP1B / RFU, RASA1 / Fold change vs veh, RASA1 / RFU, RB1 / Fold change vs veh, RB1 / RFU, PPFIA1 / Fold change vs veh, PPFIA1 / RFU, MAT2A / Fold change vs veh, MAT2A / RFU, CCT5 / Fold change vs veh, CCT5 / RFU, WDR92 / Fold change vs veh, WDR92 / RFU, CUX1 / Fold change vs veh, CUX1 / RFU, TTC7A / Fold change vs veh, TTC7A / RFU, TMEM135 / Fold change vs veh, TMEM135 / RFU, DEPTOR / Fold change vs veh, DEPTOR / RFU, CPM / Fold change vs veh, CPM / RFU, DNAJB6 / Fold change vs veh, DNAJB6 / RFU, CACNA2D3 / Fold change vs veh, CACNA2D3 / RFU, DTX4 / Fold change vs veh, DTX4 / RFU, TFCP2 / Fold change vs veh, TFCP2 / RFU, GMCL1 /// GMCL1P1 / Fold change vs veh, GMCL1 /// GMCL1P1 / RFU, AEBP2 / Fold change vs veh, AEBP2 / RFU, SNHG1 /// SNORD22 /// SNORD25 /// SNORD26 /// SNORD27 /// SNORD28 /// SNORD29 /// SNORD31 / Fold change vs veh, SNHG1 /// SNORD22 /// SNORD25 /// SNORD26 /// SNORD27 /// SNORD28 /// SNORD29 /// SNORD31 / Fold change (Aza/veh), C12orf56 (ProbeSet 11735607_a_at) / Fold change (ACY-1035/veh), C12orf56 (ProbeSet 11735607_a_at) / Fold change (Aza/veh), FGFR1OP (ProbeSet 11751329_s_at) / Fold change (ACY-1035/veh), FGFR1OP (ProbeSet 11751329_s_at) / Fold change (Aza/veh), VPS36 (ProbeSet 11739960_a_at) / Fold change (ACY-1035/veh), VPS36 (ProbeSet 11739960_a_at) / RFU SYPL1 (11715823_x_at) / Fold change /veh SYPL1 (11715823_x_at) / RFU IGFBP7 (11715501_s_at) / Fold change /veh IGFBP7 (11715501_s_at) / RFU REEP3 (11722064_at) / Fold change /veh REEP3 (11722064_at) / RFU IGLL1 (11728026_x_at) / Fold change /veh IGLL1 (11728026_x_at): dose or concentration left out as unconfirmed
Details: MV-4-11 cells, 48 hours

## Nc1ncn([C@@H]2O[C@H](CO)[C@@H](O)[C@H]2O)c(=O)n1 [azacitidine]
  RFU PRB3 (11715151_x_at): 8.00 RFU
